Data: article PMC6906431, “Selective small molecule PARG inhibitor causes replication fork stalling and cancer cell death” (Nature Communications, 2019)

Legend:
[1] = test system: MDA-MB-231 cells with scrambled shRNA (control); experiment: Cellular PARylation, anti-PAR immunoblot; format: cell-based, human
Experimental: Fig. 6 Selective inhibition of PARG by xanthine derivative JA2131. a Clonogenic survival assays of PC3, MDA-MB-231, and MCF-7 cells treated with PARGi. Cells were treated with either DMSO or 10 µM JA2131 for 2 h, irradiated with 3 Gy (MDA-MB-231 and MCF-7), 7 Gy (PC3) IR and grown for ~2 weeks, then colonies were fixed with methanol and stained with crystal violet. The results of three independent experiments are shown. Error bars = the standard error of the mean (SEM). b dose-response of JA2131 in MDA-MB-231 cells with and without IR. Cells were treated with designated concentrations of JA2131 for 2 h and then either left untreated or exposed to 3 Gy IR and allowed to recover for 1 h before lysis. Total protein was immunoblotted with anti-PAR antibody (upper panel), stripped and reprobed with anti-PCNA as a loading control. c MDA-MB-231 cells with stable scrambled shRNA (WT) or stable PARG shRNA, knockdown (KD), were treated with 5 μM JA2131 for 2 h, lysed and then total lysates were immunoblotted for anti-PAR (upper panel) followed by anti-PARG (upper middle panel), anti-PARP1 (lower middle panel) and anti-actin (bottom panel) antibody. […] Stable cells with scramble shRNA (control) and shPARG (PARG-KD) cells were treated with an increasing concentration of JA2131 for growth inhibitory IC50 determination. The data was normalized against 100% survival at the lowest inhibitor concentration. Error bars show the percent coefficient of variation. Equivalent concentrations of DMSO were used as a negative control. e The cytotoxicity of JA2131 along with PDD, Veliparib and Doxorubicin against MRC-5 cells. Error bars show the percent coefficient of variation. f CETSA for in-cell JA2131 target engagement. Normalized anti-PARG western blot intensities of three independent experiments were fitted as above and the estimated aggregation temperature (Tagg) is shown in the tabulated insert. Source Data are provided as a Source Data file.
Thus, dose-dependent JA2131-induced cellular PARylation with and without IR was investigated. For combined IR treatment, MDA-MB-231 cells were treated with JA2131 for 2 h, followed by […] X-ray and then allowed to recover for an hour before cellular extraction and western blotting analysis.
Using shRNA, next, we generated a stable MDA-MB-231 PARG knockdown (PARG-KD) cell-line (Supplementary Fig. 10). We compared PARGi JA2131-induced PARylation in PARG-KD and control cells. We reasoned that PARG-KD cells would show a reduced response to a selective PARGi as the stable PARG-KD cells would have to adopt a PARG-independent survival mechanism. MDA-MB-231 control cells and PARG-KD cells were treated with JA2131, then total cell lysates were subjected to immunoblotting with anti-PAR antibody, followed by immunodetection for anti-PARG, PARP1 and Actin antibody (Fig. 6c). […] Dose-response curves comparing control and PARG-KD cells further validate the selective action of JA2131 on control cells expressing PARG, but not on the PARG-KD cells (Supplementary Fig. 12).
Cells were grown in 6-well plates and 10 cm dishes, treated with PARGi for 2 h, irradiated and recovered for 1 h before harvesting. Cells were irradiated, ranging from 1 to 10 Gy using RAD SOURCE, RS-2000, Biological System, RadSource.com. Cells were washed with phosphate buffer and saline (PBS) and lysed with buffer containing 50 mM Hepes, pH 7.5, 1% (vol/vol) igepal-C630, 1 mg/ml bacitracin, 1 mM EDTA, 10 mM NaF, 1 mM sodium orthovanadate, 10% (vol/vol) glycerol, 50 mM NaCl, 1 mM PMSF, and Protease Inhibitor Cocktail Set III (EMD Millipore). The detergent-soluble fraction was used for western blotting. Cell fractionation was carried out using the Subcellular Protein Fractionation Kit, (#78840, ThermoFisher) according to the manufacturer’s instruction. Primary antibodies were purchased from the following sources; Actin, GAPDH, γH2AX and Histone-H3 was from Cell Signaling Technology. H2AX and LAMB1 were from Invitrogen/ThermoFisher. […]

MRC-5 cells = experiment: Sulforhodamine B (SRB) cytotoxicity assay; format: cell-based, human; conditions: Homo sapiens, MRC5, 72 h
How it was run: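 Stable scramble-shRNA control and shPARG knockdown MDA-MB-231 cells, and MRC-5 cells, exposed to increasing compound concentrations for growth-inhibitory IC50 determination. Data normalized to 100% survival at the lowest inhibitor concentration; equivalent DMSO as negative control.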

## Cn1c(=S)c2[nH]c(SCCN3CCOCC3)nc2n(C)c1=O [JA2131]
[1]; 5 μM JA2131 2 h, Ci-DMSO = 1
  anti-PAR western blot band, Normalized: 6.313
[1]; 5 μM JA2131 2 h, ImageJ
  anti-PAR western blot band, Intensity inversion: 0.006671
  anti-PAR western blot band, Neg. substracted: 0.001364
  anti-PAR western blot band, mean int.: 149.9
[1]; 5 μM, 2 h
  PAR accumulation after treatment: a measurable increase in PAR
[1]; JA2131 2 h combined with IR, 1 h recovery
  cellular PARylation: massive increase in cellular PARylation at 100 nM
[1]; JA2131 alone, 2 h
  cellular PARylation: dose-dependent increase in cellular PARylation between 1 μM and 5 μM doses
MRC-5 cells
  IC50: 132 ± 35.9 µM
